Measured values reported in patent publication US20120196824A1, “THERAPEUTIC AGENT FOR CEREBRAL INFARCTION” (MITSUBISHI TANABE PHARMA CORPORATION, priority 2009, published 2012).
Where a name gives a salt, the structure may show the parent alone.

What was measured:
[1] = system: Mouse Ischemic Stroke Model; experiment: Infarct volume suppressive and motor function improving effects in mouse ischemic stroke model (Rose Bengal photothrombosis, TTC staining, Rota-rod); type: in vivo; conditions: dose of 10 mg/kg; for infarct volume suppression rate (%): two administrations, measured two days later, TTC staining; for walking time (%): walking time on Rota-Rod with Vehicle 100%, two days later
Description: Mouse was fixed under isoflurane anesthesia and the scalp was incised. Rose Bengal (7.5 mg/kg) was administered i.v., and green light (550 nm, Hamamatsu Photonics, K.K.) was immediately irradiated at 2 mm side and 1 mm above the bregma for 5 min. Thereafter, the scalp was bonded with an instant glue. To the test drug and control groups was given the first administration after the mice awoke, and they were subjected to the administration again the next day. Two days later, motor function was evaluated by Rota-rod (up to 60 sec, walking time on Rota-Rod was measured). Then the brain was removed, sliced in 1 mm, the site of infaction was decided by 1% TTC staining and the volume was measured by image analysis. The infarct volume suppression rate (%) and walking time (%) on Rota-Rod with Vehicle 100% at the dose of 10 mg/kg are shown in the following Table. In addition, walking time (sec) on Rota-Rod and infarct volume suppression rate (mm^3) when 3-deazaadenosine was used as a test drug are shown in FIG. 1 and FIG. 2.

homocysteine synthesis = experiment: Measurement of homocysteine synthesis inhibitory activity in vivo (methionine-loaded mouse, plasma homocysteine); conditions: dose of 10 mg/kg, oral, BALB/c mouse; methionine water 1 hr later; plasma 30 min after; read-out: activity (homocysteine synthesis inhibitory rate)
Description: A sample was orally administered to BALB/c mouse and, 1 hr later, methionine water (50 g/L) was orally administered at a proportion of 10 ml/kg. 30 min later, blood samples were collected with heparin from the abdominal vein and plasma was obtained. The plasma homocysteine concentration was measured by treating the plasma with tributylphosphine, removing protein with 10% trichloroacetic acid (TCA), fluorescent labeling the supernatant with 4-fluoro-7-sulfobenzofurazan ammonium salt (SBD-F) under alkali conditions, and quantifying by HPLC. The homocysteine synthesis inhibitory rate of the sample was determined with the difference in the homocysteine value between methionine water-loaded animal and methionine water-unloaded animal as 100%. The detailed conditions of HPLC were as follows.
column used: Wakopak^R HandyODS 150*4.6 mm (Wako Pure Chemical Industries, Ltd.) elution condition: 1.0 ml/min elution solvent: 0.1M phosphate buffer (pH 6.0) 2% methanol wavelength: ex 385 nm em 515 nm

[2] = target: T1, Human-recombinant-S-Adenosyl-L-Homocysteine Hydrolase (Homo sapiens, UniProt P23526); experiment: Measurement of enzyme inhibitory activity (hydrolysis of S-Adenosyl-L-Homocysteine, HPLC); type: biochemical; conditions: S-Adenosyl-L-Homocysteine 10 μM, pH 7.2, 37° C., 15 min
T1 construct: purchased Diazyme Laboratories
Outline: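 Reactions contained recombinant human SAH hydrolase (50 ng), 10 μM S-adenosyl-L-homocysteine and adenosine deaminase (4 units) in 50 mM phosphate buffer, pH 7.2, with 1 mM EDTA, run 15 min at 37 °C. Remaining substrate was measured by reversed-phase HPLC (UV 258 nm). Inhibitory rate compared substrate depletion with versus without compound.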

T1 sequence (P23526 whole entry): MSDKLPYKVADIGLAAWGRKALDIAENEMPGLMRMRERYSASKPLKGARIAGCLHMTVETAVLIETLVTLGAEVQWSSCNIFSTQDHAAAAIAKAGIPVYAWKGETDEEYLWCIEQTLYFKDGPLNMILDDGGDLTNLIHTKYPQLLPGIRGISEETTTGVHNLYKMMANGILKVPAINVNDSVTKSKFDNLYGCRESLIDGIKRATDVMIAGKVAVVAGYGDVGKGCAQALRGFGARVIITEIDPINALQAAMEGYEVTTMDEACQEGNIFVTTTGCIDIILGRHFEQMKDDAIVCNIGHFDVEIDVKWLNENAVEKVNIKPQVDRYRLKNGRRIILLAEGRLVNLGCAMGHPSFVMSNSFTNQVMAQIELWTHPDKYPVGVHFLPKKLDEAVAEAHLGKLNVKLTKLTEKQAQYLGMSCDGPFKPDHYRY

IC50 [2] [µM]	SMILES	infarct volume suppression rate (%) [1] [%]	walking time (%) [1] [%]	inhibition in vivo at 10 mg/kg (homocysteine synthesis) [%]
0.039	CCNCCNC(=O)CN(CC(=O)N(C)N1Cc2ccc(F)cc2C1)c1cc(-c2noc(C)n2)ccc1C.Cl [Example 20, N^2-{2-[(5-fluoro-1,3-dihydro-2H-isoindol-2-yl)(methyl)amino]-2-oxoethyl}-N^2-[2-methyl-5-(5-methyl-1,2,4-oxadiazol-3-yl)phenyl]-N^1-[2-(ethylamino)ethyl]glycinamide]	26	240	≥ 40
0.047	CCNCCNC(=O)CN(CC(=O)N(C)N1Cc2ccccc2C1)c1ccc(-c2noc(C)n2)cc1C [Example 65, N^2-{2-[1,3-dihydro-2H-isoindol-2-yl(methyl)amino]-2-oxoethyl}-N^2-[2-methyl-4-(5-methyl-1,2,4-oxadiazol-3-yl)phenyl]-N^1-[2-(ethylamino)ethyl]glycinamide]	30	250	≥ 40
0.047	CCNCCNC(=O)CN(CC(=O)N(C)N1Cc2ccc(F)cc2C1)c1cc2c(cc1C)CCC2=O [Example 215, N^2-{2-[(5-fluoro-1,3-dihydro-2H-isoindol-2-yl)(methyl)amino]-2-oxoethyl}-N^2-(6-methyl-3-oxo-2,3-dihydro-1H-inden-5-yl)-N^1-[2-(ethylamino)ethyl]glycinamide]	19	340	≥ 40
0.02	CCNCCNC(=O)CN(CC(=O)N(C)N1Cc2ccc(F)cc2C1)c1cc2cnn(CC(F)F)c2cc1C [Example 253, N^2-[1-(2,2-difluoroethyl)-6-methyl-1H-indazol-5-yl]-N^2-{2-[(5-fluoro-1,3-dihydro-2H-isoindol-2-yl)(methyl)amino]-2-oxoethyl}-N^1-[2-(ethylamino)ethyl]glycinamide hydrochloride]	16	230	≥ 40

More lines, now with the values behind:

SMILES	IC50 [2] [µM]	infarct volume suppression rate (%) [1] [%]	walking time (%) [1] [%]	inhibition in vivo at 10 mg/kg (homocysteine synthesis) [%]
Nc1nccc2c1ncn2[C@@H]1O[C@H](CO)[C@@H](O)[C@H]1O [3-deazaadenosine, reference compound]		14	170	
CCNCCNC(=O)CN(CC(=O)N(C)N1Cc2ccc(F)cc2C1)c1cc2c(C)noc2cc1C [Example 183, N^2-(3,6-dimethyl-1,2-benzisoxazol-5-yl)-N^2-{2-[(5-fluoro-1,3-dihydro-2H-isoindol-2-yl)(methyl)amino]-2-oxoethyl}-N^1-[2-(ethylamino)ethyl]glycinamide dihydrochloride]		22	240	
CCNCCNC(=O)CN(CC(=O)N(C)N1Cc2ccc(F)cc2C1)c1cc2cnn(C)c2cc1C [Example 244, N^2-(1,6-dimethyl-1H-indazol-5-yl)-N^2-{2-[(5-fluoro-1,3-dihydro-2H-isoindol-2-yl)(methyl)amino]-2-oxoethyl}-N^1-[2-(ethylamino)ethyl]glycinamide hydrochloride]		26	330	≥ 40
